Experiments:
[1] = Cytotoxicity in HepG2 cells, Resazurin viability assay; settings: human, HepG2 cells, HepG2 4 days CC50 (μM), incubated for 4 days, Resazurin assay
HBV [2] = test: Anti-HBV activity, HepG2.117 inducibly HBV producing cell line (Tet-off), intracellular HBV DNA by realtime PCR; format: cell-based; settings: Hepatitis B virus, HepG2.117, 72 h, HepG2.117 cells, 3 days of treatment, intracellular HBV DNA; read-out: HepG2 117 EC50
HBV [3] = test: Anti-HBV activity, HepG2.2.15 stable transfected cell line, HBV DNA from secreted virions by realtime PCR; format: cell-based; settings: Hepatitis B virus, HepG2.2.15, 144 h, HepG2.2.15 cells, 6 days of treatment, HBV DNA from secreted virions; read-out: HepG2 2.15 EC50

| Compound | CC50 at 4 days [1] | EC50 (HBV [2]) | EC50 (HBV [3]) |
| --- | --- | --- | --- |
| C[C@@H](NS(=O)(=O)c1cc(C(=O)Nc2ccc(F)c(Cl)c2)n(C)c1)C(F)(F)F [Compound 123, N-(3-Chloro-4-fluorophenyl)-1-methyl-4-{[(1R)-2,2,2-trifluoro-1-methylethyl]sulfamoyl}-1H-pyrrole-2-carboxamide] | > 25 µM | 0.04 µM | 0.04 µM |
| Cn1cc(S(=O)(=O)NCC(F)F)cc1C(=O)Nc1ccc(F)c(C#N)c1 [Compound 126, N-(3-Cyano-4-fluorophenyl)-4-[(2,2-difluoroethyl)sulfamoyl]-1-methyl-1H-pyrrole-2-carboxamide] | > 25 µM | 0.23 µM | 0.59 µM |
| Cn1cc(S(=O)(=O)NC2(C(F)(F)F)CCC2)c(Cl)c1C(=O)Nc1ccc(F)c(F)c1 [Compound 267, 3-chloro-N-(3,4-difluorophenyl)-1-methyl-4-{[1-(trifluoromethyl)-cyclobutyl]sulfamoyl}-1H-pyrrole-2-carboxamide] | > 25 µM | 0.009 µM | 0.006 µM |
| C[C@H](NS(=O)(=O)c1cc(C(=O)Nc2ccc(F)c(Cl)c2)n(C)c1)C(F)(F)F [Compound 105, N-(3-Chloro-4-fluorophenyl)-1-methyl-4-{[(1S)-2,2,2-trifluoro-1-methylethyl]sulfamoyl}-1H-pyrrole-2-carboxamide] | > 25 µM | 0.02 µM | 0.03 µM |
| Cn1cc(S(=O)(=O)NC2(C(F)(F)F)CCC2)cc1C(=O)Nc1cc(F)c(F)c(Cl)c1 [Compound 189, N-(3-Chloro-4,5-difluorophenyl)-1-methyl-4-{[1-(trifluoromethyl)-cyclobutyl]sulfamoyl}-1H-pyrrole-2-carboxamide] | 11.3 µM | 0.007 µM | 0.007 µM |
| Cc1cc(NC(=O)c2c(C)c(S(=O)(=O)NC3(C)COC3)cn2C)ccc1F [Compound 90, N-(4-Fluoro-3-methylphenyl)-1,3-dimethyl-4-[(3-methyloxetan-3-yl)sulfamoyl]-1H-pyrrole-2-carboxamide] | > 25 µM | 0.03 µM | 0.05 µM |
| CCC(C)(C)NS(=O)(=O)c1cc(C(=O)Nc2cc(F)c(F)c(Cl)c2)n(C)c1 [Compound 66, N-(3-chloro-4,5-difluoro-phenyl)-4-(1,1-dimethylpropylsulfamoyl)-1-methyl-pyrrole-2-carboxamide] | > 25 µM | 0.03 µM | 0.03 µM |
| C[C@H](NS(=O)(=O)c1cc(C(=O)Nc2ccc(F)c(F)c2)n(C)c1)C(F)(F)F [Compound 93, N-(3,4-Difluorophenyl)-1-methyl-4-{[(1S)-2,2,2-trifluoro-1-methyl-ethyl]sulfamoyl}-1H-pyrrole-2-carboxamide] | > 25 µM | 0.03 µM | 0.03 µM |
| Cn1cc(S(=O)(=O)NC2(C)CC(F)(F)C2)cc1C(=O)Nc1ccc(F)c(Cl)c1F [Compound 256, N-(3-chloro-2,4-difluoro-phenyl)-4-[(3,3-difluoro-1-methyl-cyclo-butyl)sulfamoyl]-1-methyl-1H-pyrrole-2-carboxamide] | > 25 µM | 0.03 µM | 0.02 µM |
| [2H]C([2H])([2H])C(NS(=O)(=O)c1cc(C(=O)Nc2ccc(F)c(C)c2)n(C)c1)(C([2H])([2H])[2H])C([2H])([2H])[2H] [Compound 69, N-(4-fluoro-3-methyl-phenyl)-1-methyl-4-[[2,2,2-trideuterio-1,1-bis(trideuteriomethyl)ethyl]sulfamoyl]pyrrole-2-carboxamide] | > 25 µM | 0.07 µM | 0.03 µM |
| Cn1cc(S(=O)(=O)NC2(C)COC2)cc1C(=O)Nc1ccc(Cl)c(F)c1 [Compound 84] | > 25 µM | 0.61 µM | 0.46 µM |
| Cc1c(F)ccc(NC(=O)c2cc(S(=O)(=O)NC(C)C)cn2C)c1F [Compound 99, N-(2,4-Difluoro-3-methylphenyl)-1-methyl-4-[(1-methylethyl)sulfamoyl]-1H-pyrrole-2-carboxamide] | > 25 µM | 0.1 µM | 0.13 µM |
| Cc1cc(NC(=O)c2cc(S(=O)(=O)NC3(C)COC3)cn2C)cc(C(F)(F)F)c1 [Compound 82, 1-Methyl-4-[(3-methyloxetan-3-yl)sulfamoyl]-N-[3-methyl-5-(trifluoro-methyl)phenyl]-1H-pyrrole-2-carboxamide] | > 25 µM | 0.49 µM | 0.17 µM |
| Cn1cc(S(=O)(=O)NC2(C)CC2)cc1C(=O)Nc1ccc(F)c(C#N)c1 [Compound 244, N-(3-cyano-4-fluoro-phenyl)-1-methyl-4-[(1-methylcyclopropyl)-sulfamoyl]pyrrole-2-carboxamide] | > 25 µM | 0.53 µM | 0.14 µM |
| C[C@@H](NS(=O)(=O)c1cn(C)c(C(=O)Nc2ccc(F)c(C#N)c2F)c1F)C(F)(F)F [Compound 181, N-(3-Cyano-2,4-difluorophenyl)-3-fluoro-1-methyl-4-{[(1R)-2,2,2-trifluoro-1-methylethyl]sulfamoyl}-1H-pyrrole-2-carboxamide] | > 25 µM | 0.006 µM | 0.008 µM |
| Cn1cc(S(=O)(=O)NC2(C)COC2)cc1C(=O)Nc1ccc(F)c(Cl)c1 [Compound 78, N-(3-Chloro-4-fluorophenyl)-1-methyl-4-[(3-methyloxetan-3-yl)sulfamoyl]-1H-pyrrole-2-carboxamide] | > 25 µM | 0.03 µM | 0.02 µM |
| Cn1cc(S(=O)(=O)NC(C)(C)C)cc1C(=O)Nc1cccc(C#N)c1F [Compound 192, 4-(tert-Butylsulfamoyl)-N-(3-cyano-2-fluorophenyl)-1-methyl-1H-pyrrole-2-carboxamide] | > 25 µM | 0.19 µM | 0.57 µM |
| C[C@@H](NS(=O)(=O)c1cn(C)c(C(=O)Nc2ccc(F)c(C(F)F)c2F)c1F)C(F)(F)F [Compound 287, N-[3-(difluoromethyl)-2,4-difluoro-phenyl]-3-fluoro-1-methyl-4-[[(1R)-2,2,2-trifluoro-1-methyl-ethyl]sulfamoyl]pyrrole-2-carboxamide] | > 25 µM | 0.005 µM | 0.004 µM |
| [2H]c1cc(F)c(C)c([2H])c1NC(=O)c1cc(S(=O)(=O)NC2(C)COC2)cn1C [Compound 56, N-(2,6-dideuterio-4-fluoro-3-methyl-phenyl)-1-methyl-4-[(3-methyloxetan-3-yl)sulfamoyl]pyrrole-2-carboxamide] | > 25 µM | < 0.02 µM | 0.02 µM |
| CC(C)NS(=O)(=O)c1cn(C)c(C(=O)Nc2ccc(F)c(C#N)c2F)c1F [Compound 231, N-(3-Cyano-2,4-difluorophenyl)-3-fluoro-1-methyl-4-[(1-methyl-ethyl)sulfamoyl]-1H-pyrrole-2-carboxamide] | > 25 µM | 0.03 µM | 0.04 µM |
| Cn1cc(S(=O)(=O)NC2(C(F)(F)F)CCOCC2)cc1C(=O)Nc1ccc(F)c(Cl)c1F [Compound 258, N-(3-chloro-2,4-difluoro-phenyl)-1-methyl-4-[[1-(trifluoromethyl)-tetrahydropyran-4-yl]sulfamoyl]-1H-pyrrole-2-carboxamide] | > 25 µM | 0.02 µM | 0.03 µM |
| Cc1c(S(=O)(=O)N[C@H](C)C(F)(F)F)cc(C(=O)Nc2ccc(F)c(C(F)(F)F)c2)n1C [Compound 142, N-[4-Fluoro-3-(trifluoromethyl)phenyl]-1,5-dimethyl-4-{[(1R)-2,2,2-trifluoro-1-methylethyl]sulfamoyl}-1H-pyrrole-2-carboxamide] | > 25 µM | 0.42 µM | 0.15 µM |
| Cc1cc(F)cc(NC(=O)c2cc(S(=O)(=O)N[C@H]3CCOC3)cn2C)c1 [Compound 32, N-(3-fluoro-5-methyl-phenyl)-1-methyl-4-[[(3S)-tetrahydrofuran-3-yl]-sulfamoyl]pyrrole-2-carboxamide] | > 25 µM | 0.34 µM | 0.18 µM |
| CC(C)NS(=O)(=O)c1cc(C(=O)Nc2cc(F)c(F)c(C#N)c2)n(C)c1 [Compound 52, N-(3-cyano-4,5-difluoro-phenyl)-4-(isopropylsulfamoyl)-1-methyl-pyrrole-2-carboxamide] | > 25 µM | 0.33 µM | 0.26 µM |
| Cn1cc(S(=O)(=O)NC2(C(F)(F)F)CC2)cc1C(=O)Nc1cc(F)c(F)c(Cl)c1 [Compound 72, N-(3-chloro-4,5-difluoro-phenyl)-1-methyl-4-[[1-(trifluoromethyl)-cyclopropyl]sulfamoyl]pyrrole-2-carboxamide] | > 25 µM | 0.01 µM | 0.01 µM |
| Cn1cc(S(=O)(=O)NC2CCC(F)(F)C2)cc1C(=O)Nc1cc(F)c(F)c(Cl)c1 (racemic) [Compound 166, N-(3-Chloro-4,5-difluorophenyl)-4-[(3,3-difluorocyclopentyl)sulfamoyl]-1-methyl-1H-pyrrole-2-carboxamide] | > 25 µM | 0.12 µM | 0.14 µM |
| Cn1cc(S(=O)(=O)NC2(C(F)(F)F)CC2)c(Cl)c1C(=O)Nc1ccc(F)c(C#N)c1 [Compound 271, 3-Chloro-N-(3-cyano-4-fluorophenyl)-1-methyl-4-{[1-(trifluoro-methyl)cyclopropyl]sulfamoyl}-1H-pyrrole-2-carboxamide] | > 25 µM | 0.02 µM | 0.009 µM |
| CC[C@@H](C)NS(=O)(=O)c1cn(C)c(C(=O)Nc2ccc(F)c(C#N)c2)c1F [Compound 186, N-(3-Cyano-4-fluorophenyl)-3-fluoro-1-methyl-4-{[(1R)-1-methyl-propyl]sulfamoyl}-1H-pyrrole-2-carboxamide] | > 25 µM | 0.005 µM | 0.008 µM |

— patent US9884818B2, “Sulphamoylpyrrolamide derivatives and the use thereof as medicaments for the treatment of hepatitis B” (Janssen Sciences Ireland UC, priority 2013, dated 2018)
